ChEMBL document CHEMBL5727648, “5-aromatic alkynyl substituted benzamide compound and preparation method, pharmaceutical composition, and use thereof” (2020)

Target: Metabotropic glutamate receptor 5 (Homo sapiens, UniProt P41594)
Assay: The Fluo 8-AM fluorescent dye is an […] derivative of Fluo 8 which can easily penetrate the cell membrane into the cell by culture. The fluorescent dye into the cell will be hydrolyzed by intracellular esterase, the resulting Fluo 8 cannot easily pass through the lipid bimolecular membrane as a polar molecule, and will retain in the cell, and combine with calcium (Ca2+) to produce fluoresces.Cells expressing GPCR receptor protein (mGluR5) were first calibrated with a calcium ion sensitive fluorescent probe and then stimulated with the compound. After stimulation, the activation of the receptor lead to the calcium ion mobilization, and the fluorescent probe captures the calcium ion to induce the fluorescence signal. The signal can be read by a fluorescent plate reader. The fluorescent plate reader contains a sampling head for compound addition, thus enabling the change of the fluorescence value of the compound be read in real time.
Format: cell-based

Sequence of Metabotropic glutamate receptor 5 (P41594 whole entry): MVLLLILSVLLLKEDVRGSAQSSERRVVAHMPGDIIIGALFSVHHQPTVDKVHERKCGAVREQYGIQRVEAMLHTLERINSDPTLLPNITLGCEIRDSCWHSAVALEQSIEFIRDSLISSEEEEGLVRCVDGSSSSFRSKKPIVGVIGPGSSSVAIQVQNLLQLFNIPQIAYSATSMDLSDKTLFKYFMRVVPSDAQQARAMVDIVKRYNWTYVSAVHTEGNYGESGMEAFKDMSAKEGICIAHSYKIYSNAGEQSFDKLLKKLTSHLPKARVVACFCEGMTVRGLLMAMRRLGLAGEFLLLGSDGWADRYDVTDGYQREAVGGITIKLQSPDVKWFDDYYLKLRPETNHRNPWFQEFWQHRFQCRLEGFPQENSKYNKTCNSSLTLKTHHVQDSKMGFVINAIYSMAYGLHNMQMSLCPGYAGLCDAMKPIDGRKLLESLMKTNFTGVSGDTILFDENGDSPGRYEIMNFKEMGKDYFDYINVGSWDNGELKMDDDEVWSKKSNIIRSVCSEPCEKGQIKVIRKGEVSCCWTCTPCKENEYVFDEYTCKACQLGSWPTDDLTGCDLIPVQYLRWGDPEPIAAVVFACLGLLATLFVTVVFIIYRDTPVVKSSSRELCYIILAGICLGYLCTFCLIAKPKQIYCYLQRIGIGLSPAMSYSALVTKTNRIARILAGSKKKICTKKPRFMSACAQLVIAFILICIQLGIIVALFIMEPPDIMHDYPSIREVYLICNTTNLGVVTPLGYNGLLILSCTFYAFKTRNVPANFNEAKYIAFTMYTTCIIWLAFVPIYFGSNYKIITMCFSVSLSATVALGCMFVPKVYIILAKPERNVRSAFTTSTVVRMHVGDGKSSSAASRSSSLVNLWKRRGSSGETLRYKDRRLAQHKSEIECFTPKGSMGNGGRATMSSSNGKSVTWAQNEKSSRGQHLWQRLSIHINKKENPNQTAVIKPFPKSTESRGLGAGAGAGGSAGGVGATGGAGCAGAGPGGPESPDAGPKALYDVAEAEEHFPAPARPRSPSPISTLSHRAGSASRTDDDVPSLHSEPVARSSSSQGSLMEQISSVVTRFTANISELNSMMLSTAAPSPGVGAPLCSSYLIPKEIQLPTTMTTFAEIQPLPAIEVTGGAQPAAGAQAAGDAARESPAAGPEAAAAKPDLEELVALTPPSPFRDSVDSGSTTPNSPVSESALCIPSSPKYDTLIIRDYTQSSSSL

Cc1nc(C#Cc2cccc(C(=O)N3CCc4ccccc4C3)c2)cs1
IC50: 14.4 nM

Cc1nc(C#Cc2cccc(C(=O)Nc3cccnc3)c2)cs1
IC50: 14.2 nM
